According to US12655124B2, “Heterocyclic compounds as modulators of stimulator of interferon genes (STING)” (RYVU THERAPEUTICS S.A., priority 2019, dated 2026):

What follows are compounds tested against human STING (Homo sapiens, UniProt Q86WV6) (assay: Fluorescence Thermal Shift assay (hSTING FTS binding assay)). Conditions: ΔTm, STING 0.1 mg/mL, SyproOrange, 25 to 99° C.
Experimental: Fluorescence Thermal Shift Assay Compounds of the present invention were tested for binding to human STING in Fluorescence Thermal Shift assay. […] Final STING concentration was 0.1 mg/mL. Thermal unfolding was performed in Real-Time PCR QuantStudio 6 Flex System (Applied Biosystems), from 25 to 99° C., with continuous ramp mode and ramp rate 0.033° C./s. The data were analyzed using Protein Thermal Shift Software (ThermoFisher).
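Also: STING preincubated with compound for 20 min in HEPES NaCl buffer pH 7.5.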

Chain of human STING (Q86WV6 whole entry H232R): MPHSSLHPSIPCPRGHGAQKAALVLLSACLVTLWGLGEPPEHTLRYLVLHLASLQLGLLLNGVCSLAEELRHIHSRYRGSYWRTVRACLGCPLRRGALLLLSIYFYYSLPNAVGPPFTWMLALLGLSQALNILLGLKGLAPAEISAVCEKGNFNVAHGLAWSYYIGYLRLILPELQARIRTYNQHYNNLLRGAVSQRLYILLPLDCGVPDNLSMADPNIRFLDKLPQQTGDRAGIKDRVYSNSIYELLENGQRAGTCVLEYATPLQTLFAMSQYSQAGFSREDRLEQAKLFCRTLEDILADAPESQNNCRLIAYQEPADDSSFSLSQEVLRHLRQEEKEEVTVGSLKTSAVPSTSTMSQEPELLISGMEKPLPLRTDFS

SMILES | hSTING FTS binding assay (ΔT ° C.)
Cc1ccc(N2CCC[C@H](N(Cc3ccnc(C)c3)Cc3cn(C4CC4)c4cc(N5CC(CO)C5)c(F)cc4c3=O)C2)cn1 [Example 27, 1-cyclopropyl-6-fluoro-7-[3-(hydroxymethyl)azetidin-1-yl]-3-({[(3S)-1-(6-methylpyridin-3-yl)piperidin-3-yl][(2-methylpyridin-4-yl)methyl]amino}methyl)-1,4-dihydroquinolin-4-one] | +++ (ΔTm≥20° C.)
Cc1cc(CN(Cc2cn(C)c3ccccc3c2=O)[C@H]2CCCN(c3cccc(N)c3)C2)ccn1.Cl [Example 1, 3-({[(3S)-1-(3-Aminophenyl)piperidin-3-yl][(2-methylpyridin-4-yl)methyl]amino}methyl)-1-methyl-1,4-dihydroquinolin-4-one Hydrochloride] | + (ΔTm≤10° C.)
Cc1ccc(N2CCC[C@H](N(Cc3ccnc(C)c3)Cc3cn(C4CC4)c4cc(N5CCC6NCCC6C5)c(F)cc4c3=O)C2)cn1 (stereo partly drawn) [Example 68, 1-cyclopropyl-6-fluoro-3-({[(3S)-1-(6-methylpyridin-3-yl)piperidin-3-yl][(2-methylpyridin-4-yl)methyl]amino}methyl)-7-{octahydro-1H-pyrrolo[3,2-c]pyridin-5-yl}-1,4-dihydroquinolin-4-one] | +++ (ΔTm≥20° C.)
Cc1ccc(N2CCC[C@H](N(Cc3ccnc(C)c3)Cc3cn(C4CC4)c4nc(N5CC[C@@H](O)C5)c(F)cc4c3=O)C2)cn1.Cl [Example 37, 1-cyclopropyl-6-fluoro-7-[(3R)-3-hydroxypyrrolidin-1-yl]-3-({[(3S)-1-(6-methylpyridin-3-yl)piperidin-3-yl][(2-methylpyridin-4-yl)methyl]amino}methyl)-1,4-dihydro-1,8-naphthyridin-4-one Hydrochloride] | +++ (ΔTm≥20° C.)
Cc1cc(CN(Cc2cn(C3CC3)c3cc(N4CCC[C@H](O)C4)c(F)cc3c2=O)[C@H]2CCCN(c3cccnc3)C2)ccn1.Cl [Example 86, 1-cyclopropyl-6-fluoro-7-[(3S)-3-hydroxypiperidin-1-yl]-3-({[(2-methylpyridin-4-yl)methyl][(3S)-1-(pyridin-3-yl)piperidin-3-yl]amino}methyl)-1,4-dihydroquinolin-4-one Hydrochloride] | +++ (ΔTm≥20° C.)
CNCCOc1cc2c(cc1F)c(=O)c(CN(Cc1ccnc(C)c1)[C@H]1CCCN(c3ccc(C)nc3)C1)cn2C1CC1.Cl [Example 11, 1-Cyclopropyl-6-fluoro-7-[2-(methylamino)ethoxy]-3-({[(3S)-1-(6-methylpyridin-3-yl)piperidin-3-yl][(2-methylpyridin-4-yl)methyl]amino}methyl)-1,4-dihydroquinolin-4-one Hydrochloride] | +++ (ΔTm≥20° C.)
Cc1cnc(N2C[C@@H](F)C[C@H](N(Cc3ccnc(C)c3)Cc3cn(C4CC4)c4cc(N5CCC[C@H](O)C5)c(F)cc4c3=O)C2)cn1 [Example 82, 1-cyclopropyl-6-fluoro-3-({[(3S,5S)-5-fluoro-1-(5-methylpyrazin-2-yl)piperidin-3-yl][(2-methylpyridin-4-yl)methyl]amino}methyl)-7-[(3S)-3-hydroxypiperidin-1-yl]-1,4-dihydroquinolin-4-one] | ++ (10<ΔTm<20° C.)
Cc1ccc(N2CCC[C@H](N(Cc3ccnc(C)c3)Cc3cn(C4CC4)c4cc(N)c(F)cc4c3=O)C2)cn1 [Example 7, 7-Amino-1-cyclopropyl-6-fluoro-3-({[(3S)-1-(6-methylpyridin-3-yl)piperidin-3-yl][(2-methylpyridin-4-yl)methyl]amino}methyl)-1,4-dihydroquinolin-4-one] | +++ (ΔTm≥20° C.)
Cc1ccc(N2CCC[C@H](N(Cc3ccnc(C)c3)Cc3cn(C4CC4)c4cc(OCCN)c(F)cc4c3=O)C2)cn1 [Example 10, 7-(2-Aminoethoxy)-1-cyclopropyl-6-fluoro-3-({[(3S)-1-(6-methylpyridin-3-yl)piperidin-3-yl][(2-methylpyridin-4-yl)methyl]amino}methyl)-1,4-dihydroquinolin-4-one] | +++ (ΔTm≥20° C.)
CNC1CCN(c2cc3c(cc2F)c(=O)c(CN(Cc2ccnc(C)c2)[C@H]2CCCN(c4ccc(C)nc4)C2)cn3C2CC2)CC1.Cl [Example 19, 1-cyclopropyl-6-fluoro-7-[4-(methylamino)piperidin-1-yl]-3-({[(3S)-1-(6-methylpyridin-3-yl)piperidin-3-yl][(2-methylpyridin-4-yl)methyl]amino}methyl)-1,4-dihydroquinolin-4-one Hydrochloride] | +++ (ΔTm≥20° C.)
Cc1ccc(N2C[C@@H](F)C[C@H](N(Cc3ccnc(C)c3)Cc3cn(C4CC4)c4cc(OCCO)c(F)cc4c3=O)C2)cn1 [Example 75, 1-cyclopropyl-6-fluoro-3-({[(3S,5S)-5-fluoro-1-(6-methylpyridin-3-yl)piperidin-3-yl][(2-methylpyridin-4-yl)methyl]amino}methyl)-7-(2-hydroxyethoxy)-1,4-dihydroquinolin-4-one] | +++ (ΔTm≥20° C.)
Cc1ccc(N2CCC[C@H](N(Cc3ccnc(C)c3)Cc3cn(C4CC4)c4cc(N5CC[C@@H](N)C5)c(F)cc4c3=O)C2)cn1.Cl [Example 12, 7-[(3R)-3-Aminopyrrolidin-1-yl]-1-cyclopropyl-6-fluoro-3-({[(3S)-1-(6-methylpyridin-3-yl)piperidin-3-yl][(2-methylpyridin-4-yl)methyl]amino}methyl)-1,4-dihydroquinolin-4-one Hydrochloride] | +++ (ΔTm≥20° C.)

Further lines, results first:

hSTING FTS binding assay (ΔT ° C.) | SMILES
+++ (ΔTm≥20° C.) | Cc1ccc(N2CCC[C@H](N(Cc3ccnc(C)c3)Cc3cn(C4CC4)c4cc(N5CC[C@@H](O)C5)c(F)cc4c3=O)C2)cn1.Cl [Example 14, 1-Cyclopropyl-6-fluoro-7-[(3R)-3-hydroxypyrrolidin-1-yl]-3-({[(3S)-1-(6-methylpyridin-3-yl)piperidin-3-yl][(2-methylpyridin-4-yl)methyl]amino}methyl)-1,4-dihydroquinolin-4-one Hydrochloride]
++ (10<ΔTm<20° C.) | Cc1ccc(N2CCC[C@H](N(Cc3ccnc(C)c3)Cc3cn(C)c4cc(N5CCC(N)CC5)ccc4c3=O)C2)cn1.Cl [Example 6, 7-(4-Aminopiperidin-1-yl)-1-methyl-3-({[(3S)-1-(6-methylpyridin-3-yl)piperidin-3-yl][(2-methylpyridin-4-yl)methyl]amino}methyl)-1,4-dihydroquinolin-4-one Hydrochloride]
+++ (ΔTm≥20° C.) | CNC1CCN(c2cc3c(cc2F)c(=O)c(CN(Cc2ccnc(C)c2)[C@H]2CCCN(c4ccc(C)nc4)C2)cn3C2CC2)C1 (stereo partly drawn) [Example 33, 1-cyclopropyl-6-fluoro-7-[3-(methylamino)pyrrolidin-1-yl]-3-({[(3S)-1-(6-methylpyridin-3-yl)piperidin-3-yl][(2-methylpyridin-4-yl)methyl]amino}methyl)-1,4-dihydroquinolin-4-one]
+++ (ΔTm≥20° C.) | Cc1ccc(N2CCC[C@H](N(Cc3ccnc(C)c3)Cc3cn(C4CC4)c4cc(N5CCCC(C(=O)O)C5)c(F)cc4c3=O)C2)cn1 (stereo partly drawn) [Example 66, 1-[1-cyclopropyl-6-fluoro-3-({[(3S)-1-(6-methylpyridin-3-yl)piperidin-3-yl][(2-methylpyridin-4-yl)methyl]amino}methyl)-4-oxo-1,4-dihydroquinolin-7-yl]piperidine-3-carboxylic Acid]
+++ (ΔTm≥20° C.) | Cc1ccc(N2CCC[C@H](N(Cc3ccnc(C)c3)Cc3cn(C4CC4)c4cc(N5CC(N)C6(CC6)C5)c(F)cc4c3=O)C2)cn1.Cl (stereo partly drawn) [Example 22, 7-{7-amino-5-azaspiro[2.4]heptan-5-yl}-1-cyclopropyl-6-fluoro-3-({[(3S)-1-(6-methylpyridin-3-yl)piperidin-3-yl][(2-methylpyridin-4-yl)methyl]amino}methyl)-1,4-dihydroquinolin-4-one Hydrochloride]
+++ (ΔTm≥20° C.) | Cc1ccc(N2CCC[C@H](N(Cc3ccnc(C)c3)Cc3cn(C4CC4)c4cc(N5CCC(F)(CN)C5)c(F)cc4c3=O)C2)cn1 (stereo partly drawn) [Example 30, 7-[3-(aminomethyl)-3-fluoropyrrolidin-1-yl]-1-cyclopropyl-6-fluoro-3-({[(3S)-1-(6-methylpyridin-3-yl)piperidin-3-yl][(2-methylpyridin-4-yl)methyl]amino}methyl)-1,4-dihydroquinolin-4-one]
+++ (ΔTm≥20° C.) | Cc1ccc(N2CCC[C@H](N(Cc3ccnc(C)c3)Cc3cn(C4CC4)c4cc(N5CC[C@@H](CN)C5)c(F)cc4c3=O)C2)cn1.Cl [Example 20, 7-[(3S)-3-(aminomethyl)pyrrolidin-1-yl]-1-cyclopropyl-6-fluoro-3-({[(3S)-1-(6-methylpyridin-3-yl)piperidin-3-yl][(2-methylpyridin-4-yl)methyl]amino}methyl)-1,4-dihydroquinolin-4-one Hydrochloride]
